In PubChem BioAssay (NCI) one finds TGI and GI50 data, which are given here for 11 compounds.

Some test systems named below: A549 NSCLC; CAKI-1 renal; CCRF-CEM leukemia; DU-145 prostate; HOP-92 NSCLC; IGROV1 ovarian; LOX IMVI melanoma; MALME-3M melanoma; UACC-62 melanoma; UO-31 renal.
What all share (assay): NCI anticancer screen, dose series, 48 h

Where “and” joins values, the source holds several entries; their conditions need not be identical. Equal entries are not always repeated.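 How tested: cells in 96-well plates exposed to compound for 48 hours at five concentrations. GI50 marks 50% less growth. The concentration for full growth arrest is given as TGI.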 *1 amine or outer side, *2 acyl side, *3 side chain or, on linkers, in order; H or OH if unused. Where a SMILES comes first, the peptide text is derived from it. Bridges are numbered along the chain shown (N, C = ends). Roman numbers before positions name the chains, in order. [ ]: non-standard residue; d: D form. Actinocin(9to1) = Cc1c2oc3c(C)ccc(C(=O)[*:1])c3nc-2c(C(=O)[*:2])c(N)c1=O; NMeF = CN[CH](Cc1ccccc1)C(=O)O; Sar = CNCC(=O)O Bounds are passed on as bounds.

Consider `Cc1coc2c1C(OC(=O)C(C)C)C1(C)C(C)CCC(O)C1C2=O` (configuration not stated), for which the TGI in the experiment on A549 NSCLC, in the experiment with CAKI-1 renal, in the experiment on CCRF-CEM leukemia, in the experiment on DU-145 prostate, in the experiment with HOP-92 NSCLC and in the experiment on IGROV1 ovarian was greater than 100000 nM throughout. Besides, the TGI in the experiment with LOX IMVI melanoma, in the experiment on MALME-3M melanoma, in the experiment on UACC-62 melanoma and in the experiment on UO-31 renal was greater than 100000 nM throughout.

Consider `CCN(CC)C(=S)[S][Bi]([S]C(=S)N(CC)CC)[S]C(=S)N(CC)CC`, for which the GI50 in the experiment with A549 NSCLC is 1740 nM; with CAKI-1 renal, 199 nM; in the experiment on CCRF-CEM leukemia, 19.3 nM; with DU-145 prostate, 1280 nM; in the experiment with HOP-92 NSCLC, 136 nM; in the experiment with IGROV1 ovarian it was 577 nM. The GI50 in the experiment on LOX IMVI melanoma was 261 nM; with MALME-3M melanoma, 168 nM; with UACC-62 melanoma, 252 nM; with UO-31 renal it was 216 nM. Also, the TGI in the experiment with A549 NSCLC was determined as 3270 nM; with CAKI-1 renal it was 776 nM; in the experiment on DU-145 prostate, 2590 nM; with HOP-92 NSCLC it was 276 nM; in the experiment with IGROV1 ovarian, 1800 nM; in the experiment with LOX IMVI melanoma, 745 nM. Moreover, the TGI came out at 317 nM in the experiment on MALME-3M melanoma, 806 nM with UACC-62 melanoma and 468 nM in the experiment on UO-31 renal.

Consider `CN(C)CCCn1c(-c2nonc2N)nc2cnccc21`, for which the GI50 with A549 NSCLC was greater than 25000 nM; in the experiment with CAKI-1 renal, greater than 25000 nM; in the experiment with CCRF-CEM leukemia, greater than 25000 nM; in the experiment with DU-145 prostate, greater than 25000 nM; with HOP-92 NSCLC, 1960 nM; with IGROV1 ovarian, greater than 25000 nM. For the same compound, the GI50 was greater than 25000 nM in the experiment with LOX IMVI melanoma, greater than 25000 nM in the experiment with MALME-3M melanoma, greater than 25000 nM in the experiment on UACC-62 melanoma and greater than 11200 nM in the experiment with UO-31 renal. Also, the TGI with A549 NSCLC, in the experiment with CAKI-1 renal, in the experiment with CCRF-CEM leukemia, in the experiment with DU-145 prostate, in the experiment on HOP-92 NSCLC and in the experiment on IGROV1 ovarian was greater than 25000 nM each time. For the same compound, the TGI in the experiment on LOX IMVI melanoma, in the experiment with MALME-3M melanoma, in the experiment with UACC-62 melanoma and in the experiment with UO-31 renal was greater than 25000 nM each time.

`CCCCCCCCCCCCCCCCCC(=O)Nc1ccn(C2OC(CO)C(O)C2O)c(=O)n1` (configuration not stated): the TGI in the experiment with A549 NSCLC was greater than 100000 nM; in the experiment on CAKI-1 renal, greater than 100000 nM; with CCRF-CEM leukemia it was 26200 nM; with DU-145 prostate, greater than 100000 nM; in the experiment with HOP-92 NSCLC, greater than 100000 nM; with IGROV1 ovarian, greater than 100000 nM. Also, the TGI in the experiment on LOX IMVI melanoma is 39400 nM; in the experiment on MALME-3M melanoma, greater than 59100 nM; in the experiment with UACC-62 melanoma, greater than 100000 nM; in the experiment on UO-31 renal, greater than 79300 nM.

As for `C[C@@H]1COCCN1c1cc(C2(O)C[C@H]3CC[C@@H](C2)O3)c2cnn(-c3ccn[nH]3)c2n1` (some centres not stated), the GI50 with A549 NSCLC is 65.1 nM; in the experiment on CAKI-1 renal, 68.5 nM; with CCRF-CEM leukemia it was 38.2 nM; with DU-145 prostate, 55.3 nM; with HOP-92 NSCLC it was 114 nM; in the experiment with IGROV1 ovarian, 45.3 nM. Also, the GI50 with LOX IMVI melanoma is 24.6 nM; in the experiment with MALME-3M melanoma, 65.6 nM; in the experiment with UACC-62 melanoma, 50 nM; in the experiment on UO-31 renal, 42.7 nM. Also, the TGI was 1130 nM in the experiment on A549 NSCLC; 627 nM in the experiment with CAKI-1 renal; greater than 100000 nM in the experiment on CCRF-CEM leukemia; 2460 nM in the experiment with DU-145 prostate; 879 nM in the experiment on HOP-92 NSCLC; 977 nM with IGROV1 ovarian. The TGI in the experiment with LOX IMVI melanoma turned out to be 145 nM; in the experiment with MALME-3M melanoma it was 462 nM; in the experiment on UACC-62 melanoma, 384 nM; in the experiment with UO-31 renal, 554 nM.

For the compound `Cc1cccc(Cc2cnc(NC(=O)CCc3ccc(C)o3)s2)c1`, the GI50 was 370 nM in the experiment on A549 NSCLC; 235 nM in the experiment on CAKI-1 renal; 234 nM in the experiment with CCRF-CEM leukemia; 380 nM in the experiment on DU-145 prostate; 7310 nM with HOP-92 NSCLC; 555 nM in the experiment with IGROV1 ovarian. Further, the GI50 is 518 nM in the experiment with LOX IMVI melanoma, 160 nM in the experiment with UACC-62 melanoma and 589 nM with UO-31 renal. The TGI was greater than 100000 nM in the experiment on A549 NSCLC; 50800 nM with CAKI-1 renal; greater than 100000 nM in the experiment with CCRF-CEM leukemia; greater than 95800 nM in the experiment with DU-145 prostate; 98700 nM in the experiment on HOP-92 NSCLC; greater than 100000 nM with IGROV1 ovarian. In addition, the TGI in the experiment on LOX IMVI melanoma, in the experiment on MALME-3M melanoma, in the experiment on UACC-62 melanoma and with UO-31 renal was greater than 100000 nM each time.

Consider `COc1ccccc1C(=O)N(C)c1ccc(Cl)c(C(=O)OC(C)C)c1`, for which the TGI with A549 NSCLC, with CAKI-1 renal, in the experiment with CCRF-CEM leukemia, with DU-145 prostate, in the experiment with HOP-92 NSCLC and with IGROV1 ovarian was greater than 100000 nM throughout. In addition, the TGI in the experiment with LOX IMVI melanoma, with MALME-3M melanoma, in the experiment on UACC-62 melanoma and with UO-31 renal was greater than 100000 nM each time.

As for `O=C(c1ccccc1)c1c(C(F)(F)F)n([O-])c2ccc(C(F)(F)F)cc2[n+]1=O`, the GI50 was 140 nM in the experiment on A549 NSCLC; 193 nM in the experiment with CAKI-1 renal; 281 nM with CCRF-CEM leukemia; 289 nM with DU-145 prostate; 160 nM in the experiment on HOP-92 NSCLC; 205 nM with IGROV1 ovarian. The GI50 in the experiment on LOX IMVI melanoma was 51.3 nM; with MALME-3M melanoma it was 545 nM; with UACC-62 melanoma it was 665 nM; with UO-31 renal, 173 nM. Besides, the TGI worked out at 278 nM with A549 NSCLC; 348 nM in the experiment on CAKI-1 renal; 1410 nM with CCRF-CEM leukemia; 698 nM in the experiment with DU-145 prostate; 318 nM with HOP-92 NSCLC; 408 nM with IGROV1 ovarian. Further, the TGI in the experiment on LOX IMVI melanoma amounted to 95.4 nM; with MALME-3M melanoma it was 1200 nM; with UACC-62 melanoma, 1860 nM; in the experiment on UO-31 renal it was 322 nM.

Regarding `C[C@@H](Nc1nc(Nc2ccc(F)c(Cl)c2)nc2ccccc12)C1CC1`, the GI50 in the experiment on A549 NSCLC was 5640 nM; with CAKI-1 renal, 3180 nM; with CCRF-CEM leukemia, 2250 nM; in the experiment with DU-145 prostate it was 7190 nM; in the experiment with HOP-92 NSCLC it was 1600 nM; in the experiment on IGROV1 ovarian it was 3060 nM. Besides, the GI50 in the experiment on LOX IMVI melanoma was 1680 nM; with MALME-3M melanoma, 1660 nM; in the experiment on UACC-62 melanoma, 2680 nM; in the experiment on UO-31 renal, 2620 nM. In addition, the TGI in the experiment on A549 NSCLC was 19600 nM; in the experiment with CAKI-1 renal, 15700 nM; in the experiment on CCRF-CEM leukemia, 7120 nM; with DU-145 prostate, 20500 nM; with HOP-92 NSCLC, 5790 nM; with IGROV1 ovarian, 17700 nM. Besides, the TGI turned out to be 3250 nM with LOX IMVI melanoma, 3650 nM with MALME-3M melanoma, 14300 nM in the experiment on UACC-62 melanoma and 14000 nM in the experiment with UO-31 renal.

As to `Cc1c2oc3c(C)ccc(C(=O)NC4C(=O)NC(C(C)C)C(=O)N5CCCC5C(=O)N(C)CC(=O)N(C)C(Cc5ccccc5)C(=O)OC4C)c3nc-2c(C(=O)NC2C(=O)NC(C(C)C)C(=O)N3CCCC3C(=O)N(C)CC(=O)N(C)C(Cc3ccccc3)C(=O)OC2C)c(N)c1=O` (configuration not stated) (I: TVP[Sar][NMeF] / II: TVP[Sar][NMeF]; ester I:1-I:C, II:1-II:C; linker I:N-II:N via Actinocin(9to1); configuration not given here), the GI50 in the experiment with A549 NSCLC is < 10 nM and 1.45 nM; in the experiment on CCRF-CEM leukemia, 0.459 nM; in the experiment on IGROV1 ovarian, < 10 nM and 2.8 nM; in the experiment with LOX IMVI melanoma it was < 10 nM and 1.03 nM; in the experiment with UACC-62 melanoma it was < 10 nM and 4.26 nM; in the experiment on UO-31 renal, < 10 nM and 96.8 nM. Further, the TGI was 295 nM and > 1000 nM in the experiment with A549 NSCLC; 2790 nM and > 223 nM in the experiment with CAKI-1 renal; 10.2 nM with CCRF-CEM leukemia; < 10 nM and 69.8 nM with DU-145 prostate; < 47.6 nM and 60.6 nM in the experiment with HOP-92 NSCLC; less than 10 nM in the experiment on LOX IMVI melanoma. Besides, the TGI in the experiment with MALME-3M melanoma was < 10 nM and 49.3 nM; in the experiment on UACC-62 melanoma, < 10 nM and 18.8 nM.

In the case of `CC[C@H](C)C(=O)O[C@H]1C[C@H](O)C=C2C=C[C@H](C)[C@H](CC[C@@H](O)C[C@@H](O)CC(=O)O)[C@H]21`, the GI50 in the experiment on A549 NSCLC is greater than 100000 nM; with CAKI-1 renal it was greater than 100000 nM; in the experiment on CCRF-CEM leukemia, greater than 100000 nM; in the experiment with DU-145 prostate, greater than 100000 nM; in the experiment on HOP-92 NSCLC, 23000 nM; in the experiment with IGROV1 ovarian it was greater than 100000 nM. Moreover, the GI50 in the experiment on LOX IMVI melanoma, in the experiment on MALME-3M melanoma, with UACC-62 melanoma and with UO-31 renal was greater than 100000 nM throughout. Besides, the TGI in the experiment with A549 NSCLC, in the experiment with CAKI-1 renal, in the experiment with CCRF-CEM leukemia, with DU-145 prostate, with HOP-92 NSCLC and with IGROV1 ovarian was greater than 100000 nM throughout. In addition, the TGI in the experiment on LOX IMVI melanoma, in the experiment with MALME-3M melanoma, with UACC-62 melanoma and with UO-31 renal was greater than 100000 nM each time.
